{"source": "patent US20260248923A1", "about": "“BI-SPECIFIC ADAPTERS AND THEIR USE WITH UNIVERSAL CAR-T CELLS IN THE TREATMENT OF TUMORS AND THE INHIBITION OF CANCER-ASSOCIATED FIBROBLASTS” (priority 2023, published 2026)", "key": {"[1]": {"tested_on": "MDA-PSMA tumors (high PSMA level)", "assay": "MDA-PSMA tumor in NSG mice with anti-FITC CAR T-cells", "conditions": "for eradication of MDA-PSMA tumors: 10 million anti-FITC CAR T-cells", "experimental": "MDA-PSMA cells (high PSMA level; 5 million cells) were implanted into each NSG mouse by subcutaneous injection. […] The tumor volume and body weight were monitored regularly. Tumor volume was calculated using the formula: (length*width^2)/2. […] MDA-PSMA cells (5 million) were implanted into each NSG mouse by subcutaneous injection. […] The volumes of the tumors and the body weights of the mice were monitored regularly. Tumor volume was calculated using the formula: (length*width^2)/2."}, "22Rv1 tumor": {"tested_on": "22Rv1 tumor", "assay": "22Rv1 tumor in NSG mice with anti-FITC CAR T cells", "type": "in vivo", "conditions": "10 million anti-FITC CAR T cells"}, "[2]": {"tested_on": "MDA-MB-231-PSMA tumor cells", "conditions": "mouse, in vivo", "procedure": "(§2) The mice were euthanized at the indicated time points after injection. Tumors were dissected and dissociated into single cells. Fluorescent intensity of FITC indicating the total retention of the adapters in the tumor cells were analyzed by flow cytometry. To analyze the surface retention of the adapters on the tumor cell surface, the dissociated tumor cells were stained with APC-anti-FITC antibody, and the fluorescent intensity of APC was analyzed by flow cytometry."}, "PSMA [3]": {"molecular_target": "T1, PSMA (Homo sapiens, UniProt Q04609)", "T1 construct": "expressed in transfected cells; host or cells: MDA-MB-231 (MDA-PSMA / PSMA+ MDA-MB-231)", "T1 sequence (Q04609 whole entry)": "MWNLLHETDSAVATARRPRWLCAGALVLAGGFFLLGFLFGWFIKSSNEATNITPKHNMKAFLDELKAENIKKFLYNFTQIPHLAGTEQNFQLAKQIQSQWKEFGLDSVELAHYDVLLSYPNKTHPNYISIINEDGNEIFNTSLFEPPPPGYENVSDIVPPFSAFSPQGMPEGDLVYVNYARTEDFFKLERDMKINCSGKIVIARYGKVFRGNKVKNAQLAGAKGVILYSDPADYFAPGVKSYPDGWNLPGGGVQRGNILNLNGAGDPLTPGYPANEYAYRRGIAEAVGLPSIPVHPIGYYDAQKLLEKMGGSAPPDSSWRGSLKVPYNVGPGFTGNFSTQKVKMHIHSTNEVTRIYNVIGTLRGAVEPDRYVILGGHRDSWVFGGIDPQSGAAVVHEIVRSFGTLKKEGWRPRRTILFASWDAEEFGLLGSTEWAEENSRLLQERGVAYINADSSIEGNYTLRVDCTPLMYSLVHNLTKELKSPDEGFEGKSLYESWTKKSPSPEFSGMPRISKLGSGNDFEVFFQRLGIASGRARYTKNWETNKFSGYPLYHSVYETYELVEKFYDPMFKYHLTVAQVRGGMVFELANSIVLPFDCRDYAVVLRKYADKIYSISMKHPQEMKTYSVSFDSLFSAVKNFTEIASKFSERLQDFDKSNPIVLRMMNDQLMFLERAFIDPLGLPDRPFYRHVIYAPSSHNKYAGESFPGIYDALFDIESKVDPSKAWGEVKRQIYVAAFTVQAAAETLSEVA", "assay": "Binding to MDA-PSMA cells by flow cytometry (MFI of FITC)", "experimental": "MDA-PSMA cells (0.2 million) were incubated with 2-fold serial diluted adapters starting from 500 nM in complete RPMI medium (RPMI+10% FBS) for 1 hour at room temperature. Cells were washed twice with 2% FBS in PBS and resuspended in the same buffer. Fluorescent intensity of fluorescein isothiocyanate (FITC) was analyzed by flow cytometer.\nMDA-PSMA cells (0.2 million) were incubated with 1 μM of DUPA-FITC conjugates with different PEG linkers in complete RPMI medium (RPMI+10% FBS) for 1 hour at room temperature. Free compounds were washed away, and fluorescent intensity of FITC was analyzed by flow cytometer. To analyze the surface exposure of FITC moiety, the stained cells were incubated with APC-anti-FITC on ice for 30 minutes.\nMDA-PSMA cells (0.2 million) were incubated with 2-fold serial diluted adapters starting from 500 nM in complete RPMI medium (RPMI+10% FBS) for 1 hour at room temperature. Cells were washed twice with 2% FBS in PBS and resuspended in the same buffer. Fluorescent intensity of FITC was analyzed by flow cytometer."}, "22Rv1 cells [4]": {"tested_on": "22Rv1 cells", "assay": "22Rv1 / anti-FITC CAR T co-culture, 48 hours", "type": "cell-based", "experimental": "The number of 22Rv1 cells was counted at the end of the co-culture. The cytotoxicity of anti-FITC CAR T cells was calculated using the formula: (number of untreated 22Rv1 cells−number of treated 22Rv1 cells)/number of untreated 22Rv1 cells*100%. Concentrations of IFNγ in the co-culture medium were analyzed by ELISA using human IFNγ ELISA kit (Biolegend)."}, "MDA-PSMA cells": {"tested_on": "MDA-PSMA cells", "assay": "Retention in MDA-PSMA cells in vitro (confocal, flow cytometry)", "type": "cell-based", "conditions": "1 μM one hour, washed, 37 C", "experimental": "(§1) Unbound compounds were washed away, and the cells were cultured in RPMI containing 10% FBS at 37° C. with 5% CO2. At indicated time points, the cells were imaged under a confocal microscope to analyze the intensity and location of FITC. […] To analyze the surface-bound FITC, the cells were stained with APC-anti-FITC antibody for 30 minutes on ice at different time points. The fluorescence intensity of APC was analyzed by flow cytometer."}, "22Rv1 cells [5]": {"tested_on": "22Rv1 cells", "assay": "Retention in 22Rv1 cells in vitro", "type": "cell-based", "conditions": "1 μM one hour, washed, 37 C", "experimental": "as §1"}, "MDA-MB-231-PSMA tumors": {"tested_on": "MDA-MB-231-PSMA tumors", "assay": "Fluorescent imaging of MDA-PSMA tumor bearing mice", "type": "in vivo", "conditions": "500 nmol/kg intravenously", "description": "MDA-PSMA tumor bearing mice were intravenously injected with the indicated adapters at 500 nmol/kg. Fluorescent images of the mice were taken in the Spectral Ami imaging system at the indicated time points after injection."}, "[6]": {"tested_on": "TagCAR (universal anti-fluorescein CAR)", "assay": "Competition assay against FL-AF647 on TagCAR T cells", "type": "binding", "conditions": "Ki=IC50/(1+[S]/Km), [FL-AF647]=100 nM, triplicates from different donors; read-out: mean calculated inhibitor constant (Ki)", "experimental": "PSMAL1-PEG6-FITC strongly binds to TagCAR T cells generated using TagCAR lentiviral particles. […] Due to fluorescein fluorescence being quenched when bound by TagCAR, TagCAR T cells were instead incubated with saturating levels of FL-AF647, which was then competed off by increasing concentrations of PSMAL1-PEG6-FITC. As compared to the antigen-only control sodium fluorescein (NaFL), lower concentrations of PSMAL1-PEG6-FITC were necessary to compete with FL-AF647, as detected by the mean fluorescent intensity (MFI) of FL-AF647."}, "PSMA [7]": {"molecular_target": "T1, PSMA", "assay": "SurfaceTag on-cell binding to PSMA+ MDA-MB-231 tumor cells", "experimental": "PSMAL1-PEG6-FITC strongly localizes on the surface of PSMA-positive tumor cells. To characterize the on-cell binding affinity of PSMAL1-PEG6-FITC to PSMA-expressing tumor cells, different concentrations of PSMAL1-PEG6-FITC were incubated with […] tumor cells that either over-expressed PSMA (PSMA^+) or were wildtype (PSMA−). Levels of surface fluorescein antigen on MDA-MB-321 tumor cells were detected using an anti-fluorescein antibody (FIG. 44A)."}, "[8]": {"tested_on": "PSMA+ MDA-MB-231 tumor cells", "assay": "TagCAR T cell coculture with PSMA-overexpressing MDA-MB-231 tumor cells", "type": "cell-based", "experimental": "PSMAL1-PEG6-FITC elicits dose-dependent TagCAR T cell function in vitro. The efficacy of TagCAR T cells generated as described in Example 42 mediated by PSMAL1-PEG6-FITC on PSMA-positive tumor cells was investigated in vitro. The normalized fold tumor cell growth of PSMA-overexpressing (PSMA^+) MDA-MB-231 tumor cells was measured every four hours during an 88-hour coculture of PSMA^+ MD-MB-231 tumor cells and different concentrations of PSMAL1-PEG6-FITC in the presence of TagCAR T cells generated as described in Example 42.\nIn addition, cytokine levels were measured in culture supernatants 24 hours following the addition of TagCAR T cells generated as described in Example 42 and different concentrations of PSMAL1-PEG6-FITC to PSMA MD-MB-231 tumor cells.\nThe presence of TagCAR+ cells (FIG. 45C) and presence of CD25+(FIG. 45D) in CD3+ T cells were also measured after 88 hours of coculture with PSMA^+ MDA-MB-231 tumor cells with different concentrations of PSMAL1-PEG6-FITC. CD3+ T cells with TagCAR had higher percentages of CD25+ as compared to CD3+ T cells without TagCAR."}, "[9]": {"tested_on": "MDA-MB-231-PSMA tumor cells", "assay": "Total and surface retention of adapters on MDA-PSMA tumor cells in vivo (flow cytometry)", "procedure": "as §2"}}, "note": "Like-named read-outs stand apart in the source and are kept apart here.", "data": [{"smiles": "CC(C)(C)OC(=O)CC[C@H](NC(=O)N[C@@H](CCC(=O)OCc1ccccc1)C(=O)OC(C)(C)C)C(=O)OC(C)(C)C", "note": "(stereo in doubt) [DUPA-PEG6-FITC, 2-[3-(3-Benzyloxycarbonyl-1-tert-butoxycarbonyl-propyl)-ureido]pentanedioic Acid Di tert-butyl Ester]", "values": [{"measurement": "eradication of MDA-PSMA tumors", "setting": "[1]", "result": "good efficacy on eliminating MDA-PSMA tumors"}, {"measurement": "body weight loss", "setting": "[1]; mouse, in vivo", "result": "no body weight loss was observed"}, {"measurement": "growth of 22Rv1 tumor", "setting": "22Rv1 tumor", "result": "didn't show much efficacy"}, {"measurement": "tumor cells that retained adapter on the surface", "setting": "[2]", "result": 9, "unit": "%"}, {"measurement": "tumor cells that still had adapter in the cells (total FITC)", "setting": "[2]", "result": 13, "unit": "%"}]}, {"smiles": "O=C(O)CC[C@H](NC(=O)N[C@@H](CCCCNC(=O)[C@H](Cc1ccc2ccccc2c1)NC(=O)[C@H]1CC[C@H](CNC(=O)CCOCCOCCOCCOCCOCCOCCNC(=S)Nc2ccc(-c3c4ccc(=O)cc-4oc4cc(O)ccc34)c(C(=O)O)c2)CC1)C(=O)O)C(=O)O", "note": "[PSMAL1-PEG6-FITC]", "values": [{"measurement": "binding affinity relative to DUPA-PEG6-FITC", "setting": "PSMA [3]", "result": "five-fold higher"}, {"measurement": "binding affinity and total binding (MFI of FITC)", "setting": "PSMA [3]; 1 hour room temperature", "result": "Higher Binding Affinity and Higher Total Binding than DUPA-PEG6-FITC"}, {"measurement": "lysis of 22Rv1 cells by anti-FITC CAR-T cells", "setting": "22Rv1 cells [4]; low concentration", "result": "much higher than DUPA-PEG6-FITC at low concentration"}, {"measurement": "IFNγ secreted by anti-FITC CAR-T cells", "setting": "22Rv1 cells [4]; low concentrations", "result": "higher than DUPA-PEG6-FITC at low concentrations"}, {"measurement": "eradication of MDA-PSMA tumors", "setting": "[1]", "result": "good efficacy on eliminating MDA-PSMA tumors"}, {"measurement": "body weight loss", "setting": "[1]; during treatment", "result": "no body weight loss was observed"}, {"measurement": "retention in MDA-MB-231-PSMA cells (confocal images)", "setting": "MDA-PSMA cells", "result": "stayed longer in MDA-MB-231-PSMA cells than DUPA-PEG6-FITC"}, {"measurement": "retention in MDA-PSMA cells expressing different levels of PSMA (flow cytometry)", "setting": "MDA-PSMA cells", "result": "stayed longer in MDA-PSMA cells expressing different levels of PSMA than DUPA-PEG6-FITC"}, {"measurement": "retention in 22Rv1 cells (flow cytometry)", "setting": "22Rv1 cells [5]", "result": "stayed longer in 22Rv1 cells"}, {"measurement": "retention in MDA-MB-231-PSMA tumors (fluorescent images)", "setting": "MDA-MB-231-PSMA tumors", "result": "Better Retention in MDA-MB-231-PSM4 Tumors than DUPA-PEG6-FITC and DUPA-FITC"}, {"measurement": "growth of 22Rv1 tumor", "setting": "22Rv1 tumor", "result": "inhibited the growth of 22Rv1 tumor significantly"}, {"measurement": "Ki", "setting": "[6]", "result": 9.9, "unit": "nM"}, {"measurement": "Bmax (total antigen amount)", "setting": "PSMA [7]; PSMA+ tumor cells", "result": "2.6×10^6 MFI"}, {"measurement": "Kd", "setting": "PSMA [7]; PSMA+ tumor cells, anti-fluorescein antibody, read-out: Kd (on-cell binding affinity)", "result": 1.29, "unit": "nM"}, {"measurement": "localization on surface of PSMA-expressing tumor cells", "setting": "PSMA [7]; PSMA+ vs PSMA- cells", "result": "specifically localized on the surface of PSMA-expressing tumors"}, {"measurement": "normalized fold tumor cell growth", "setting": "[8]; 88-hour coculture with TagCAR T cells", "result": "tumor size decreased"}, {"measurement": "IFNg and IL-2 levels in culture supernatants", "setting": "[8]; 24 hours", "result": "increased with increasing doses"}, {"measurement": "tumor cells that retained adapter on the surface", "setting": "[9]; 48 hours post-injection", "result": 65, "unit": "%"}, {"measurement": "tumor cells that still had adapter in the cells (total FITC)", "setting": "[9]; 48 hours post-injection", "result": 77, "unit": "%"}, {"measurement": "tumor cells that retained adapter (total FITC)", "setting": "[9]; 144 hours post-injection", "result": 45, "unit": "%"}, {"measurement": "tumor cells that retained adapter on the surface", "setting": "[9]; 144 hours post-injection", "result": 34, "unit": "%"}]}]}
